Reference: ChEMBL document CHEMBL3734681, “Sortase A Inhibitors: Recent Advances and Future Perspectives” (J Med Chem, 2015)
≈ marks a conversion by molar mass, not a printed value.

Experiments:
[1] = Inhibition of Staphylococcus aureus ATCC 6538p SrtA by spectrometery
[2] = Inhibition of Staphylococcus aureus ATCC 6538p recombinant SrtA after 1 hr by spectrometery using Dabcyl-QALPETGEE-Edans as substrate
[3] = Inhibition of Staphylococcus aureus SrtA after 2 hrs
[4] = Inhibition of Bacillus anthracis SrtA
[5] = Inhibition of Staphylococcus aureus SrtA by FRET assay
[6] = Inhibition of Staphylococcus aureus SrtA
[7] = Competitive inhibition of Staphylococcus aureus ATCC 6538p recombinant SrtA by spectrometery using Dabcyl-QALPETGEE-Edans as substrate

## COc1cc(/C=C/C(=O)CC(=O)/C=C/c2ccc(O)c(OC)c2)ccc1O [CURCUMIN]
[1]
  IC50: 13.8 mg/L (≈ 37.5 µM)

## COc1ccc2cc3[n+](cc2c1OC)CCc1cc2c(cc1-3)OCO2.[Cl-] [BERBERINE CHLORIDE]
[2]
  IC50: 8.7 mg/L

## COC(=O)/C(=C/c1ccc(OC)cc1)c1ccc(OC)cc1
[2]; read-out: IC50
  IC50: 231 µM

## CN(C)CCC(=O)c1cccs1
[3]
  IC50: 47 µM
[4]
  IC50: 4.8 µM

## CC[C@H](CC[C@@H](C)[C@H]1CC[C@H]2[C@@H]3CC[C@@H]4C[C@@H](O[C@@H]5O[C@H](CO)[C@@H](O)[C@H](O)[C@H]5O)CC[C@]4(C)[C@H]3CC[C@]12C)C(C)C
[2]
  IC50: 18.3 mg/L

## O=C(O)COc1ccccc1C1Nc2cccc3cccc(c23)N1
[5]
  IC50: 15.12 mg/L (≈ 47.2 µM)

## C=C(C)[C@H](CCC(C)(C)O)Cc1c(O)cc(OC)c2c1O[C@H](c1ccc(O)cc1O)CC2=O [KURARINOL]
[6]
  IC50: 48.8 mg/L (≈ 107 µM)

## Clc1ccccc1-c1nn2c(-c3ccncc3)nnc2s1
[6]
  IC50: 11.78 mg/L (≈ 37.5 µM)

## COc1ccc(/C=C(\C#N)c2ccc(OC)cc2)cc1
[2]; read-out: IC50
  IC50: 28 µM

## COc1ccc(/C(C#N)=C/c2cc(OC)ccc2OC)cc1
[2]; read-out: IC50
  IC50: 9.2 µM
[7]
  Ki: 6.81 µM

## CN(C)CCC(=O)c1ccc(Cl)c(Cl)c1
[3]
  IC50: 15 µM
[4]
  IC50: 5.6 µM
